Experimental data published in ChEMBL document CHEMBL1201862, “PubChem BioAssay data set” (2004).
Values belong to the compound of their own block, whether it stands above or below them. The source made the active and inactive calls.

Assays:
[1] = molecular target: Luciferin 4-monooxygenase (Photinus pyralis, UniProt P08659); assay: inhibition of purified Photinus pyralis luciferase – biochemical, luminescence, dose response (AID 1891)
[2] = Luminescence Cell-Based Dose Confirmation HTS to Identify Inhibitors of Platelet Dense Granule Release. [Related pubchem assays: 1663 (Primary HTS), 1678 (Summary of Project)]; type: functional
[3] = molecular target: T1, Microphthalmia-associated transcription factor (Homo sapiens, UniProt O75030); assay: reducers of TRPM1 reporter luminescence, concentration series – cell-based, SK-MEL-5, cherry-picked, set 3, MITF inhibitor project, dose response (AID 493073); type: functional;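 also: SK-MEL-5 melanoma cells with luciferase driven by the MITF target TRPM1 promoter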
T1 sequence (O75030 whole entry): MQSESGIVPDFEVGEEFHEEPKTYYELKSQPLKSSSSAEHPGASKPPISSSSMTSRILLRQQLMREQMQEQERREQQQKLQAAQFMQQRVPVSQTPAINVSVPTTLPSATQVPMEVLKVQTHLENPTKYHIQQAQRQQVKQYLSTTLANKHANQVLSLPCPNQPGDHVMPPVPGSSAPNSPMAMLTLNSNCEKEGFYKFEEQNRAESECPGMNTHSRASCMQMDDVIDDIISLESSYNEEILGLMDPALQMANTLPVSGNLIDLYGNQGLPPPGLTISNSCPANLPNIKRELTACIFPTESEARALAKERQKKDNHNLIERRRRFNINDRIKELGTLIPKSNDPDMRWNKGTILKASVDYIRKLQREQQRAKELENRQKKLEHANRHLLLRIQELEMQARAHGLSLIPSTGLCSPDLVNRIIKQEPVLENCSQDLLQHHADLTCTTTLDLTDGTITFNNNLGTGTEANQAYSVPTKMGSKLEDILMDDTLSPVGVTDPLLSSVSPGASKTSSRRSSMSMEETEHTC

A-375 = assay: MITF: Counter assay: A375 proliferation Measured in Cell-Based System Using Plate Reader - 2084-03_Inhibitor_Dose_DryPowder_Activity. [Related pubchem assays (depositor defined):AID488944]; type: functional; conditions: Homo sapiens
[4] = reduction of Shn3 3'UTR-driven luciferase in osteoblasts – cell-based, Clone20 osteoblasts, firefly luciferase, cherry-picked, dose response (AID 624132); type: functional;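 also: firefly luciferase luminescence from reporter carrying the Shn3 3'UTR in osteoblasts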
[5] = loss of viability in HepG2 cells – cell-based, CellTiter-Glo, cherry-picked, cytotoxicity control for Shn3 inhibitor project, dose response (AID 624134); type: functional
[6] = non-specific 3'UTR reporter inhibition in Clone20-Shn3RL – cell-based, Renilla luciferase, cherry-picked, counter-screen for Shn3 inhibitor project, dose response (AID 624133); type: functional
Escherichia coli = assay: microbe, parasite or virus in culture
X-box-binding protein 1 = molecular target: T2, X-box-binding protein 1 (Homo sapiens, UniProt P17861); type: functional, Cricetulus griseus;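 also: confirmatory dose-response counter-screen serving a CHOP assay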
T2 sequence (P17861 whole entry): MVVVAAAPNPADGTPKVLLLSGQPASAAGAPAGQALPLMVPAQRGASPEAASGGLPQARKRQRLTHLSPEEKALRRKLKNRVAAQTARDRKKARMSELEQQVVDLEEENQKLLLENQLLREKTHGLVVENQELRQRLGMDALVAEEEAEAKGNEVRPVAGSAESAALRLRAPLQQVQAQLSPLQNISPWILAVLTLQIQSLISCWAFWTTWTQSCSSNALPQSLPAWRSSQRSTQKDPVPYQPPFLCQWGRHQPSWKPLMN

[7] = molecular target: T3, Short transient receptor potential channel 4 (Mus musculus, UniProt Q9QUQ5); assay: block of DAMGO-driven TRPC4 calcium entry – cell-based, HEK293 TRPC4/mu-opioid, Fluo-4 calcium, dose response (AID 434942); type: functional;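 also: potency of inhibitors blocking the TRPC4 calcium response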
T3 sequence (Q9QUQ5 whole entry): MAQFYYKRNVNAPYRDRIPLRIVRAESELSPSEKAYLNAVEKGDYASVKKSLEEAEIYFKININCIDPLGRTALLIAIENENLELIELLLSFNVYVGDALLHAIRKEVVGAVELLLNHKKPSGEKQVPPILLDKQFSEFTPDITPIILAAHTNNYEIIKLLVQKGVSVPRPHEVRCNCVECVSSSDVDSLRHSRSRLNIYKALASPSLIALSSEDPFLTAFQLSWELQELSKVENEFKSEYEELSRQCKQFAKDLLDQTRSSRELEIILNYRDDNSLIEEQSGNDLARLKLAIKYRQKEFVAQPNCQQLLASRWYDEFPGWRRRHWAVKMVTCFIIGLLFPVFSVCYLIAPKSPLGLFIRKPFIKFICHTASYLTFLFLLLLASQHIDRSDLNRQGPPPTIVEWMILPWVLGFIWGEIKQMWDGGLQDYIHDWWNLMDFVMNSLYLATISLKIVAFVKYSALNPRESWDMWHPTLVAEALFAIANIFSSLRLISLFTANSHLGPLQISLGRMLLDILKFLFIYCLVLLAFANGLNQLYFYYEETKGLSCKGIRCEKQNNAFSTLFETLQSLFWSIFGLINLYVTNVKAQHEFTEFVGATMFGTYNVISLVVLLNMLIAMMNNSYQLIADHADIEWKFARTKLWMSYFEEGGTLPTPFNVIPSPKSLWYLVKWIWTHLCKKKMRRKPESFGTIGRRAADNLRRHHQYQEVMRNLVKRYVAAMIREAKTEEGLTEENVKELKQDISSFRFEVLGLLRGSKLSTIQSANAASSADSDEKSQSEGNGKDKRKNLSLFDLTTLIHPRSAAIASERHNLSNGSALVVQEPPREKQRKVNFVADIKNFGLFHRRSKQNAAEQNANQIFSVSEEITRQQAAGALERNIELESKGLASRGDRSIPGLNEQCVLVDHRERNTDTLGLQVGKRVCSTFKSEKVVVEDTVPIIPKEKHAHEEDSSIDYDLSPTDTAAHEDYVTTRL

[8] = molecular target: T3, Short transient receptor potential channel 4; assay: calcium entry via TRPC4 opening agents – cell-based, HEK293 TRPC4/mu-opioid, Fluo-4 calcium, dose response (AID 434937); type: functional
[9] = NIH-3T3 fibroblast cytotoxicity, dose response, cytotoxicity control, cell-based, fluorescence, Alamar Blue, secondary assay (AID 2327); type: functional;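 also: NIH-3T3 mouse fibroblasts cultured with fluconazole at 8 µg/mL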
[10] = fluconazole-exposed Candida albicans growth modulators – fluorescence, retest, confirmation (AID 2467); type: functional, cell-based
[11] = molecular target: Delta-type opioid receptor (Homo sapiens, UniProt P41143); assay: Counterscreen for agonists of heterodimerization of the mu 1 (OPRM1) and delta 1 (OPRD1) opioid receptors: Luminescence-based cell-based high throughput dose response assay to identify agonists of OPRD1 homodimerization. [Related pubchem assays (depositor defined):AID504326, AID504355, AID504692, AID504904, AID504905]; type: functional
Delta-type opioid receptor, sequence (P41143 whole entry): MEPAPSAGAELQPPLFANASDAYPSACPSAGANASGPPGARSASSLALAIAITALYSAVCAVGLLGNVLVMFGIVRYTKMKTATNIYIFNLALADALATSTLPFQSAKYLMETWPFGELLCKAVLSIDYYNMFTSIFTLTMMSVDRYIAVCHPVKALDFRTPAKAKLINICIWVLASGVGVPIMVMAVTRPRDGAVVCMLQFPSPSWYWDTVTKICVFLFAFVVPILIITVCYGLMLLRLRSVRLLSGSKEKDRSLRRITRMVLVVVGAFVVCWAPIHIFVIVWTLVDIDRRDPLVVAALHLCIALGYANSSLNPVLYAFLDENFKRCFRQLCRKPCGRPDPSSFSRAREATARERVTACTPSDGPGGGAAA

Mu-type opioid receptor = Mu-type opioid receptor (Homo sapiens, UniProt P35372); assay: Counterscreen for agonists of heterodimerization of the mu 1 (OPRM1) and delta 1 (OPRD1) opioid receptors: Luminescence-based cell-based high throughput dose response assay to identify agonists of OPRM1 homodimerization.; type: functional;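 also: U2OS cells expressing OPRM1 and beta-arrestin as split beta-galactosidase partners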
Mu-type opioid receptor, sequence (P35372 whole entry): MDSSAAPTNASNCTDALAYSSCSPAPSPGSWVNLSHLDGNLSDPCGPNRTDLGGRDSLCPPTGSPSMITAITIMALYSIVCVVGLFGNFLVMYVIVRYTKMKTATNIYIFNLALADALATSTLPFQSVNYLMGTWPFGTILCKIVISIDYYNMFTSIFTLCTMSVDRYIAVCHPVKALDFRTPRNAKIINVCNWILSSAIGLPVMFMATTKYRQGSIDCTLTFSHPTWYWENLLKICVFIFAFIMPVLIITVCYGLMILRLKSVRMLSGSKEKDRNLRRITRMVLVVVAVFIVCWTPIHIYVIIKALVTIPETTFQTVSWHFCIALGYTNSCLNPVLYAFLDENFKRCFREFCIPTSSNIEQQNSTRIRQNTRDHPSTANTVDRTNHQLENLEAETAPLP

[12] = molecular target: 5-hydroxytryptamine receptor 5A (Homo sapiens, UniProt P47898); assay: Counterscreen for agonists of OPRM1-OPRD1 heterodimerization: luminescence-based cell-based high throughput dose response assay to identify agonists of 5-hydroxytryptamine (serotonin) 5A receptor (HTR5A). [Related pubchem assays (depositor defined):AID504326, AID504355, AID504692, AID504904, AID504905]; type: functional
5-hydroxytryptamine receptor 5A, sequence (P47898 whole entry): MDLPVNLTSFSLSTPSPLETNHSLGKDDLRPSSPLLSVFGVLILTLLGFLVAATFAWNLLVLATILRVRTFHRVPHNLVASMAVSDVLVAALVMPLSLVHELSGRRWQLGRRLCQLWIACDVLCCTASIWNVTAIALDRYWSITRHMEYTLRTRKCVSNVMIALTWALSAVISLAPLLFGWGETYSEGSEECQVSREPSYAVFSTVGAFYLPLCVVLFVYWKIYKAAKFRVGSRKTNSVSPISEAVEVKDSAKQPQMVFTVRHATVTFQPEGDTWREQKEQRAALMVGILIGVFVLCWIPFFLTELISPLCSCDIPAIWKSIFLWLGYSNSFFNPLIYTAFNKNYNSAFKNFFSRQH

[13] = HEK-293T viability loss after treatment – luminescence, T-cell screen hits, cytotoxicity control for TCR NF-kB inhibitor project, dose response (AID 489026); type: functional, cell-based;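 also: cells exposed to compound about 14 hours before the viability readout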

Luciferin 4-monooxygenase, sequence (P08659 whole entry): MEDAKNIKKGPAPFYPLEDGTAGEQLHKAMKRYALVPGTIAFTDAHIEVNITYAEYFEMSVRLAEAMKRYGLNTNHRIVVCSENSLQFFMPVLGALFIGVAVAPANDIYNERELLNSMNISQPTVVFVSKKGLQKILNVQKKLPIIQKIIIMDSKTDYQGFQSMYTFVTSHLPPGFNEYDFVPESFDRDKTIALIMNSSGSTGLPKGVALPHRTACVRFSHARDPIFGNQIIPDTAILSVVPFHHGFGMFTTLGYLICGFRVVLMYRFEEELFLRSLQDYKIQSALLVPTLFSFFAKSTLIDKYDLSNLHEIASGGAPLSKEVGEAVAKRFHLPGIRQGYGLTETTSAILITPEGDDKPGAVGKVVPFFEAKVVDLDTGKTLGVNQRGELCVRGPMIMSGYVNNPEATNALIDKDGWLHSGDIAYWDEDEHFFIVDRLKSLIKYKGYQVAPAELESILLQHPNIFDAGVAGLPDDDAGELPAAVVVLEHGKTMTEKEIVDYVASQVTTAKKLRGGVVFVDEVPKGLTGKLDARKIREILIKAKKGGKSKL

SMILES: O=C(/C=C/Nc1ccccc1Br)c1ccccn1
EC50 [1]: 1.34 µM (active)
EC50 [2]: 4.02 µM (active)
AC50 [3]: 0.899 µM (active)
AC50 (A-375): 27.6 µM (active)
AC50 [4]: 1.8 µM (active)
AC50 [5]: 47.7 µM (active)
AC50 [6]: 30.4 µM (active)
AC50 (Escherichia coli): > 150 µM (inactive)

Absolute IC50 (XBP1) (X-box-binding protein 1): 10 µM
SMILES: CC(C)c1ccccc1NC(=O)Cn1c(/C=C/c2ccccc2)nc2ccccc21

EC50 [7]: 3.35 µM (active)
EC50 [8]: 8.41 µM (active)
SMILES: Cc1cc(NCc2ccccc2)nc2ccccc12

SMILES: C=CCSc1nc(-c2ccc(OCCCC)cc2)n[nH]1
EC50 [9]: > 150 µM (inactive)
EC50 [10]: > 38 µM (not active)
Absolute IC50 (XBP1) (X-box-binding protein 1): < 10 µM

EC50 [8]: 0.267 µM (active)
EC50 [11]: > 92.5 µM (inactive)
EC50 (Mu-type opioid receptor): > 92.5 µM (inactive)
EC50 [12]: > 92.5 µM (inactive)
SMILES: Cc1ccc(C)c(-n2cc(CNCCc3cnccn3)c(-c3ccccc3)n2)c1

SMILES: O=C1CC(c2cc(F)ccc2F)c2cc3c(cc2N1)CCC3 (centres undefined)
IC50 [13]: > 80 µM (inactive)
